Each molecule was assayed against human A2A receptor (A2AR) (Homo sapiens (Human), UniProt P29274) (assay: Luciferase reporter assay (HEK293-A2AR-luc2p/CRE/Hygro cells)). Details: 3 nM CGS21680, 5 h incubation.
Chain of human A2A receptor (A2AR) (P29274 whole entry): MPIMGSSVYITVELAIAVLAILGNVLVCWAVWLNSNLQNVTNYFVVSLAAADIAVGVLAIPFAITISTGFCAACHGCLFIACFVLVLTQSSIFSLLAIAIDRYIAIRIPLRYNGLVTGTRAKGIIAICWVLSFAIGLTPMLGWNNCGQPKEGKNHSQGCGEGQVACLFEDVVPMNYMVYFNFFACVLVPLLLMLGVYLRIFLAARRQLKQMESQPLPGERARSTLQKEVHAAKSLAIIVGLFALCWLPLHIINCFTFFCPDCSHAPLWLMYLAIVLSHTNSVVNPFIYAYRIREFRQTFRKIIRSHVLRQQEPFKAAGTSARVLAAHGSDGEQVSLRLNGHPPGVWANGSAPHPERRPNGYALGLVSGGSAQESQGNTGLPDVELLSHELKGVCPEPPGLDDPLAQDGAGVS
Type: cell-based
How it was run: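 HEK293 cells stably expressing human A2AR and a CRE-luc2P reporter were seeded in 1% FBS with 1 U/mL adenosine deaminase. After 18 h they were stimulated 5 h with 3 nM CGS21680 plus compound (0.1–10000 nM), then luciferase luminescence was read. IC50 was taken from inhibition curves, with CGS21680 alone set as 100%.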
`CC(C(=O)N[C@H]1CCCC[C@H]1O)(c1ccccc1)n1ncc2c1nc(N)n1nc(-c3ccco3)nc21` (stereo partly drawn) [Example 58A, 2-(5-amino-2-(furan-2-yl)-7H-pyrazolo[4,3-e][1,2,4]triazolo[1,5-c]pyrimidin-7-yl)-N-((1S,2R)-2-hydroxycyclohexyl)-2-phenylpropanamide] gave an IC50 of 14.2 nM.
Molecule `C[C@](C(=O)N[C@@H]1CCCC[C@@H]1O)(c1ccccc1)n1ncc2c1nc(N)n1nc(-c3ccco3)nc21` [Example 58B, (R)-2-(5-amino-2-(furan-2-yl)-7H-pyrazolo[4,3-e][1,2,4]triazolo[1,5-c]pyrimidin-7-yl)-N-((1R,2S)-2-hydroxycyclohexyl)-2-phenylpropanamide] has an IC50 of 1.3 nM.
Work on `CC(C(=O)N[C@H]1CCCOC1)(c1ccccc1)n1ncc2c1nc(N)n1nc(-c3ccco3)nc21` (stereo partly drawn) [Example 59, 2-(5-amino-2-(furan-2-yl)-7H-pyrazolo[4,3-e][1,2,4]triazolo[1,5-c]pyrimidin-7-yl)-2-phenyl-N—((S)-tetrahydro-2H-pyran-3-yl)propanamide] yielded an IC50 of 11.1 nM.
`CC(C(=O)N[C@@H]1CCCOC1)(c1ccccc1)n1ncc2c1nc(N)n1nc(-c3ccco3)nc21` (stereo partly drawn) [Example 60, 2-(5-amino-2-(furan-2-yl)-7H-pyrazolo[4,3-e][1,2,4]triazolo[1,5-c]pyrimidin-7-yl)-2-phenyl-N—((R)-tetrahydro-2H-pyran-3-yl)propanamide] was tested, and the IC50 was 8.2 nM.
Molecule `CC(C(=O)NCC1CCCOC1)(c1ccccc1)n1ncc2c1nc(N)n1nc(-c3ccco3)nc21` (centres unmarked) [Example 61, 2-(5-amino-2-(furan-2-yl)-7H-pyrazolo[4,3-e][1,2,4]triazolo[1,5-c]pyrimidin-7-yl)-2-phenyl-N-((tetrahydro-2H-pyran-3-yl)methyl)propanamide] has an IC50 of 12.4 nM.
In the case of `CN(C)CCNC(=O)C(C)(c1ccccc1)n1ncc2c1nc(N)n1nc(-c3ccco3)nc21` (centres unmarked) [Example 62, 2-(5-amino-2-(furan-2-yl)-7H-pyrazolo[4,3-e][1,2,4]triazolo[1,5-c]pyrimidin-7-yl)-N-(2-(dimethylamino)ethyl)-2-phenylpropanamide], the IC50 is reported as 91.1 nM.
With `Cc1ccccc1C(C)(C(=O)NCC1(O)COC1)n1ncc2c1nc(N)n1nc(-c3ccco3)nc21` (centres unmarked) [Example 63, 2-(5-amino-2-(furan-2-yl)-7H-pyrazolo[4,3-e][1,2,4]triazolo[1,5-c]pyrimidin-7-yl)-N-((3-hydroxyoxetan-3-yl)methyl)-2-(o-tolyl)propanamide] the IC50 was 4.3 nM.
`CC(C(=O)Nc1cccnc1)(c1ccccc1)n1ncc2c1nc(N)n1nc(-c3ccco3)nc21` (centres unmarked) [Example 64, 2-(5-amino-2-(furan-2-yl)-7H-pyrazolo[4,3-e][1,2,4]triazolo[1,5-c]pyrimidin-7-yl)-2-phenyl-N-(pyridin-3-yl)propanamide] gave an IC50 of 35.1 nM.
`CC(C(=O)Nc1ccncc1)(c1ccccc1)n1ncc2c1nc(N)n1nc(-c3ccco3)nc21` (centres unmarked) [Example 65, 2-(5-amino-2-(furan-2-yl)-7H-pyrazolo[4,3-e][1,2,4]triazolo[1,5-c]pyrimidin-7-yl)-2-phenyl-N-(pyridin-4-yl)propanamide] showed an IC50 of 25.5 nM.
Work on `CC(C(=O)NCc1ccccn1)(c1ccccc1)n1ncc2c1nc(N)n1nc(-c3ccco3)nc21` (centres unmarked) [Example 66, 2-(5-amino-2-(furan-2-yl)-7H-pyrazolo[4,3-e][1,2,4]triazolo[1,5-c]pyrimidin-7-yl)-2-phenyl-N-(pyridin-2-ylmethyl)propanamide] yielded an IC50 of 6.2 nM.
Molecule `C[C@](C(=O)NCc1ccccn1)(c1ccccc1)n1ncc2c1nc(N)n1nc(-c3ccco3)nc21` [Example 66B, (R)-2-(5-amino-2-(furan-2-yl)-7H-pyrazolo[4,3-e][1,2,4]triazolo[1,5-c]pyrimidin-7-yl)-2-phenyl-N-(pyridin-2-ylmethyl)propanamide] has an IC50 of 2.4 nM.
In the case of `CC(C(=O)N[C@@H]1CCCNC1)(c1ccccc1)n1ncc2c1nc(N)n1nc(-c3ccco3)nc21` (stereo partly drawn) [Example 67, 2-(5-amino-2-(furan-2-yl)-7H-pyrazolo[4,3-e][1,2,4]triazolo[1,5-c]pyrimidin-7-yl)-2-phenyl-N—((R)-piperidin-3-yl)propanamide], the IC50 is reported as 75.5 nM.
`CC(C(=O)N[C@H]1CCCNC1)(c1ccccc1)n1ncc2c1nc(N)n1nc(-c3ccco3)nc21` (stereo partly drawn) [Example 68, 2-(5-amino-2-(furan-2-yl)-7H-pyrazolo[4,3-e][1,2,4]triazolo[1,5-c]pyrimidin-7-yl)-2-phenyl-N—((S)-piperidin-3-yl)propanamide] showed an IC50 of 72.1 nM.
`CC(C(=O)N[C@H]1CC[C@](C)(O)CC1)(c1ccccc1)n1ncc2c1nc(N)n1nc(-c3ccco3)nc21` (stereo partly drawn) [Example 69, 2-(5-amino-2-(furan-2-yl)-7H-pyrazolo[4,3-e][1,2,4]triazolo[1,5-c]pyrimidin-7-yl)-(cis)-N-(4-hydroxy-4-methylcyclohexyl)-2-phenylpropanamide] gave an IC50 of 10.5 nM.
Molecule `COc1ccccc1C(C)(C(=O)NCC1(O)COC1)n1ncc2c1nc(N)n1nc(-c3ccco3)nc21` (centres unmarked) [Example 70, 2-(5-amino-2-(furan-2-yl)-7H-pyrazolo[4,3-e][1,2,4]triazolo[1,5-c]pyrimidin-7-yl)-N-((3-hydroxyoxetan-3-yl)methyl)-2-(2-methoxyphenyl)propanamide] has an IC50 of 1.7 nM.
Molecule `CC(C(=O)NCC1(O)CCC1)(c1ccccc1)n1ncc2c1nc(N)n1nc(-c3ccco3)nc21` (centres unmarked) [Example 71, 2-(5-amino-2-(furan-2-yl)-7H-pyrazolo[4,3-e][1,2,4]triazolo[1,5-c]pyrimidin-7-yl)-N-((1-hydroxycyclobutyl)methyl)-2-phenylpropanamide] has an IC50 of 3.8 nM.
`CC(C(=O)NCC1(O)CCCCC1)(c1ccccc1)n1ncc2c1nc(N)n1nc(-c3ccco3)nc21` (centres unmarked) [Example 72, 2-(5-amino-2-(furan-2-yl)-7H-pyrazolo[4,3-e][1,2,4]triazolo[1,5-c]pyrimidin-7-yl)-N-((1-hydroxycyclohexyl)methyl)-2-phenylpropanamide] was tested, and the IC50 was 7.8 nM.
`CC(C(=O)NCCC1CCOCC1)(c1ccccc1)n1ncc2c1nc(N)n1nc(-c3ccco3)nc21` (centres unmarked) [Example 73, 2-(5-amino-2-(furan-2-yl)-7H-pyrazolo[4,3-e][1,2,4]triazolo[1,5-c]pyrimidin-7-yl)-2-phenyl-N-(2-(tetrahydro-2H-pyran-4-yl)ethyl)propanamide] showed an IC50 of 9.3 nM.
`CC(C(=O)NCCC1CCOC1)(c1ccccc1)n1ncc2c1nc(N)n1nc(-c3ccco3)nc21` (centres unmarked) [Example 74, 2-(5-amino-2-(furan-2-yl)-7H-pyrazolo[4,3-e][1,2,4]triazolo[1,5-c]pyrimidin-7-yl)-2-phenyl-N-(2-(tetrahydrofuran-3-yl)ethyl)propanamide] was tested, and the IC50 was 11.1 nM.
Work on `COCCOCCNC(=O)C(C)(c1ccccc1)n1ncc2c1nc(N)n1nc(-c3ccco3)nc21` (centres unmarked) [Example 75, 2-(5-amino-2-(furan-2-yl)-7H-pyrazolo[4,3-e][1,2,4]triazolo[1,5-c]pyrimidin-7-yl)-N-(2-(2-methoxyethoxy)ethyl)-2-phenylpropanamide] yielded an IC50 of 16.9 nM.
With `C[C@@](C(=O)N[C@H]1CC[C@@H](O)CC1)(c1ccccc1)n1ncc2c1nc(N)n1nc(-c3ccco3)nc21` [Example 76A, (S)-2-(5-amino-2-(furan-2-yl)-7H-pyrazolo[4,3-e][1,2,4]triazolo[1,5-c]pyrimidin-7-yl)-(cis)-N-(4-hydroxycyclohexyl)-2-phenylpropanamide] the IC50 was 40.4 nM.
`CC(C(=O)Nc1ccccn1)(c1ccccc1)n1ncc2c1nc(N)n1nc(-c3ccco3)nc21` (centres unmarked) [Example 77, 2-(5-amino-2-(furan-2-yl)-7H-pyrazolo[4,3-e][1,2,4]triazolo[1,5-c]pyrimidin-7-yl)-2-phenyl-N-(pyridin-2-yl)propanamide] was tested, and the IC50 was 15.3 nM.
`Cc1nccnc1-c1nc2c3cnn(C(C)(C(=O)NCC4(O)COC4)c4ccccc4)c3nc(N)n2n1` (centres unmarked) [Example 78, 2-(5-amino-2-(3-methylpyrazin-2-yl)-7H-pyrazolo[4,3-e][1,2,4]triazolo[1,5-c]pyrimidin-7-yl)-N-((3-hydroxyoxetan-3-yl)methyl)-2-phenylpropanamide] was tested, and the IC50 was 83.3 nM.
Molecule `CC(C(=O)NCC1COC1)(c1ccccc1)n1ncc2c1nc(N)n1nc(-c3ccco3)nc21` (centres unmarked) [Example 79, 2-(5-amino-2-(furan-2-yl)-7H-pyrazolo[4,3-e][1,2,4]triazolo[1,5-c]pyrimidin-7-yl)-N-(oxetan-3-ylmethyl)-2-phenylpropanamide] has an IC50 of 31 nM.
With `CC(C(=O)NCC1(O)CCOCC1)(c1ccccc1)n1ncc2c1nc(N)n1nc(-c3ccco3)nc21` (centres unmarked) [Example 80, 2-(5-amino-2-(furan-2-yl)-7H-pyrazolo[4,3-e][1,2,4]triazolo[1,5-c]pyrimidin-7-yl)-N-((4-hydroxytetrahydro-2H-pyran-4-yl)methyl)-2-phenylpropanamide] the IC50 was 9.4 nM.
In the case of `CNCCNC(=O)C(C)(c1ccccc1)n1ncc2c1nc(N)n1nc(-c3ccco3)nc21` (centres unmarked) [Example 81, 2-(5-amino-2-(furan-2-yl)-7H-pyrazolo[4,3-e][1,2,4]triazolo[1,5-c]pyrimidin-7-yl)-N-(2-(methylamino)ethyl)-2-phenylpropanamide], the IC50 is reported as 120 nM.
`Nc1nc2c(cnn2C(C(=O)NCC2(O)COC2)c2ccccc2)c2nc(-c3ccco3)nn12` (centres unmarked) [Example 82, 2-(5-amino-2-(furan-2-yl)-7H-pyrazolo[4,3-e][1,2,4]triazolo[1,5-c]pyrimidin-7-yl)-N-((3-hydroxyoxetan-3-yl)methyl)-2-phenylacetamide] showed an IC50 of 4.5 nM.
With `CC(C(=O)NCc1ccncc1)(c1ccccc1)n1ncc2c1nc(N)n1nc(-c3ccco3)nc21` (centres unmarked) [Example 83, 2-(5-amino-2-(furan-2-yl)-7H-pyrazolo[4,3-e][1,2,4]triazolo[1,5-c]pyrimidin-7-yl)-2-phenyl-N-(pyridin-4-ylmethyl)propenamide] the IC50 was 11.2 nM.
With `CC(C(=O)NCc1cccnc1)(c1ccccc1)n1ncc2c1nc(N)n1nc(-c3ccco3)nc21` (centres unmarked) [Example 84, 2-(5-amino-2-(furan-2-yl)-7H-pyrazolo[4,3-e][1,2,4]triazolo[1,5-c]pyrimidin-7-yl)-2-phenyl-N-(pyridin-3-ylmethyl)propenamide] the IC50 was 17 nM.

Source: US11472811B2, “Pyrazolotriazolopyrimidine derivatives as A2A receptor antagonist” (BEIGENE, LTD., priority 2018, dated 2022)
